According to US12377049B2, “Fulvestrant pharmaceutical composition, preparation method therefor, and application thereof” (SHANGHAI BOCIMED PHARMACEUTICAL CO., LTD., priority 2019, dated 2025):

How the values were obtained:
[1] = background statement; cited from earlier work
[2] = Stability test on the fulvestrant suspensions of Examples 1-3: related substances (EP10.0 method); assay type: physicochemical; details: starting material
Method: The fulvestrant suspensions prepared in Examples 1 and 2 were stored in a refrigerator at 4° C. for 14 days or 10 days, and tested for related substances.
The fulvestrant suspension prepared in Example 3 was placed at −20° C., 4° C., 25° C., 40° C. or 60° C., and tested for related substances, the morphology, particle size distribution and crystalline form changes of the fulvestrant solid particles. The test for the related substances was performed according to the EP10.0 method.

[3] = background statement; cited from earlier work; remark: listed apart in the source

SMILES: C[C@]12CC[C@@H]3c4ccc(O)cc4C[C@@H](CCCCCCCCC[S+]([O-])CCCC(F)(F)C(F)(F)F)[C@H]3[C@@H]1CC[C@@H]2O (some centres unmarked) [Fulvestrant, 7-(9-(4,4,5,5,5-pentafluoropentylsulfinyl)nonyl)estra-1,3,5(10)-triene-3,17-diol]
- water solubility [1]: very low
- Main peak, peak area [2]: 99.84%
- RRT 0.51, peak area [2]: 0.01%
- RRT 0.88, peak area [2]: 0.05%
- RRT 1.19, peak area [2]: 0.04%
- RRT 2.92, peak area [2]: 0.03%
- Total impurities, peak area [2]: 0.05%
- oral bioavailability [3]: low
